Columns and labels:
[1] = test system: anti-HBs; experiment: Anti-HBs responses in immunocompromised irradiated DBA/2 mice (EIA); type: in vivo; conditions: for anti-HBs, Day 21: p < 0.01
Protocol: Experimental mice were irradiated at a dose rate of 25 rad/min (1 rad=0.01 Gy) using a ^60 Coγ beam source for four minutes. Data represent the average of ten animals in each group.
Serum specimens from immunized mice were tested for the presence of anti-HBs in an enzyme immunoassay (EIA) using the diagnostic kits of Roche Diagnostica as per the manufacturer's instructions. The anti-HBs EIA kit (Roche), has a sensitivity of <10 IU/1.
Antibody concentration was determined with the help of calibration curves designed on the basis of the results of anti-HBs detection in standard serum panel (Roche Diagnostica) with the concentrations, as follows: 10 IU/l; 50 IU/l; 100 IU/l and 150 IU/l. The results of the two experiments were used for the calculation of mean values.
In a second set of experiments, the effect of MIMP on the induction of a specific immune response to HBsAg in immunocompromised DBA/2 mice subjected to ionizing radiation was analyzed using the same vaccination schemes as set forth for the control DBA/2.

[2] = test system: Salm. typhimurium strain 415; experiment: Salmonella infection mortality; type: in vivo, BALB/c mice; conditions: the various treatments of MIMP; p<0.01; control about 2.5 days
[3] = test system: CD8+ lymphocytes; experiment: PHA response of CD8+ enriched human lymphocytes; type: cell-based; conditions: MIMP 1-200 μg/ml, 3 donors, p <0.01
From the text: Human CD4+ and CD8+ lymphocyte subsets were obtained from normal controls using commercial panning techniques (Applied Immune Sciences, Santa Clara, Calif.).
Human peripheral blood lymphocytes are on average approximately 80% T lymphocytes and 20% B lymphocytes and of the T lymphocytes, 2/3 are of the CD4+ helper/inducer phenotype and 1/3 are the CD8+ suppressor/cytotoxic phenotype. Enrichment of CD4+ T cells or CD8+ T cells can be achieved through reduction of the other phenotype (>98%) removal using adherence to monoclonal antibody-coated flasks (panning).

[4] = test system: spleen plaque antibody forming cells (PFC); experiment: In vivo stimulation of PFC response to SRBC; set-up: species or system mice
Protocol: Five days later, suspensions of spleen cells were prepared and their viability was determined by trypan blue exclusion test. Cells were suspended at 3×10^6 /ml. 0.2 ml of spleen cell suspension was mixed with 0.8 ml of 0.7% agarose and 0.2 ml of freshly washed SRBC (at 6×10^5 /ml). The mixture was immediately poured into the plate and allowed to solidify. After 60 minutes of incubation at 37° C. in a humid atmosphere of 5% CO2 in the air, the plate was flooded with 1 ml of guinea-pig complement diluted 1:5 with Hank's balanced saline. Hemolytic plaques were counted with an inverted scope using 4× magnification.
Spleen plaque antibody forming cells (PFC) were measured at the end of the five days.

[5] = test system: IL-10; experiment: PHA-induced IL-10 production; type: cell-based; conditions: preliminary data
[6] = test system: human peripheral blood lymphocytes (HPBL); experiment: Response of normal HPBL to PWM; type: cell-based; conditions: PWM 0.5 μg/ml
Protocol: In vitro: Both human peripheral blood lymphocytes (HPBL) and mouse spleen lymphocytes (MSL) were employed. Proliferation was assayed by tritiated thymidine incorporation, as described in Hadden et al. (1975) and Hadden et al. (1986). For HPBL transformation, PHA and PWM were used at 0.5 μg/ml. For MSL transformation, Con A was used at 0.5 μg/ml, phytohemagglutinin (PHA, Murex Diagnostics, Atlanta, Ga.) at 0.5 μg/ml and lipopolysaccharide endotoxin (LPS, Sigma, St. Louis, Mo.) at 10 μg/ml. When protected-IMP derivatives were added, they were added at the onset of culture at varying concentrations ranging from 0.1 μg/ml to 100 μg/ml.
Murine splenocytes were obtained from BALB/c mice, 4-12 months old, by standard procedures (Hadden et al., 1975). They were cultured in microwell plates at 1.5×10^6 cells/ml of minimal essential media (MEM, Gibco Labs, Grand Island, N.Y.) with 5% fetal calf serum (FCS, Hyclone Labs, Logan, Utah) and tested for their proliferative response to mitogens as measured by incorporation of (^3 H) tritiated thymidine (New England Nuclear, Wilmington Del., […]; 2.5 μCi/ml) during a terminal pulse followed by liquid scintillation spectrometry. Human cells were seeded at […] and cultured for 48 hours with an 18 hour pulse with ^3 H-thymidine.
Normal human peripheral blood lymphocytes (HPBL) were stimulated with the mitogenic agents PHA or PWM. […]

[7] = test system: prothymocytes; conditions: Touraine et al., 1991; cited from earlier work
[8] = test system: delayed-type hypersensitivity response; experiment: Delayed-type hypersensitivity in vivo (footpad swelling, SRBC); set-up: species or system mice
Protocol: Mice were immunized by intraperitoneal administration of SRBC in graded doses of from 10^6 to 10^9 cells. […] A dose of 10^7 was chosen to immunize animals in this study.
Four days following immunization, each mouse was challenged by injecting the left hind footpad subcutaneously with 10^8 SRBC in 50 μl phosphate buffered saline (PBS). Vehicle (50 μl PBS) was injected subcutaneously into the right hind footpad as a control. The compounds being tested were injected intraperitoneally either at the time of immunization or at the time of elicitation. After 24 hours of challenge, footpad swelling was measured as the increase in footpad thickness (left minus right) using Engineer's calipers.
The results are expressed as increments of footpad thickness in 0.1 mmunits. The characteristics of delayed-type hypersensitivity measured in this way have been described previously in MacDonald et al. (1979). FIGS. 13 and 14 show the results of this testing.

[9] = test system: human peripheral blood lymphocytes (HPBL); experiment: PHA responses of HPBL from aged and HIV-infected individuals; type: cell-based; conditions: 100 μg/ml
Protocol: The human donors included 22 healthy controls (ages ranging from 20-50), 24 aged individuals (mean age 84 years, ±1), 8 HIV-infected pre-AIDS patients (CDC Class II-mean CD4 count 544), and 8 AIDS patients (mean CD4 count 40).
FIG. 7 depicts the PHA responses of these aged and HIV-infected individuals and the effect of stimulation with 100 μg/ml of MIMP compared to normal controls (C).

[10] = scheme 6: Radiation + scheme N2 (HBsAg + MIMP per os)
[11] = scheme 7: Radiation + scheme N3 (HBsAg + MIMP i.p. then per os)

In the case of `COP(=O)(O)OC[C@H]1O[C@@H](n2cnc3c(=O)[nH]cnc32)[C@H](O)[C@@H]1O` [Me-IMP, Methyl-5'-inosine-monophosphate], the “anti-HBs, Day 14” value [1, 10] is reported as under 10 IU/1, the “anti-HBs, Day 21” value [1, 10] is reported as 100 IU/1 and the “anti-HBs, Day 14” value [1, 11] is reported as under 10 IU/1. The “anti-HBs, Day 21” value [1, 11] was 100 IU/1, the MST [2] was “about four” and the “PHA response of CD8+ lymphocytes” value [3] was “significantly augmented”. The “effect on PFC response” value ([4]; 50 mg/kg of body weight ip with SRBC, PFC five days later) was “significantly stimulated”, the “dose of optimal stimulation of PFC response” value ([4]; intraperitoneal) was 50 mg/kg of body weight and the “PFC activity at lower doses” value ([4]; intraperitoneal, below 50 mg/kg) was “active at lower doses”. For the same compound, the “peak dose for stimulation of PFC response” value ([4]; oral, with SRBC antigen and daily for five days) was 50 mg/kg of body weight, the “effect on IL-10 production” value [5] was “potently inhibits” and the “effect on PWM response of HPBL” value [6] was “not affected”. For the same compound, the “differentiation markers of prothymocytes” value [7] was “induce differentiation markers of prothymocytes”, the delayed-type hypersensitivity response ([8]; one dose i.p. at the time of challenge) was “not significant” and the delayed-type hypersensitivity response ([8]; one dose i.p. at the time of immunization) was “significantly stimulated”. For the same compound, the “response of lymphocytes to MIMP in presence of PHA” value (from here on “response of lymphocytes to MIMP”) ([9]; 8 AIDS patients) was “no response”, the “response of lymphocytes to MIMP” value ([9]; 8 HIV-infected (ARC) individuals) was “significant response” and the “response of lymphocytes to MIMP” value ([9]; 9 aged patients (Ag-)) was “markedly depressed responses to PHA and also to MIMP”. For the same compound, the “response of lymphocytes to MIMP” value ([9]; 15 aged patients (Ag+)) was “normal PHA responses and responses to MIMP” and the “response of lymphocytes to MIMP” value ([9]; 22 controls) was “normal PHA and MIMP responses”.
